Values quoted from earlier work, collected in patent publication US20220288147A1, “GINSENG COMPOSITION AND USE THEREOF AS A MEDICAMENT” (BOTALYS SA, priority 2019, published 2022).

Conditions: oral

CC(C)=CCC[C@](C)(O[C@@H]1O[C@H](CO)[C@@H](O)[C@H](O)[C@H]1O)[C@H]1CC[C@]2(C)[C@@H]1[C@H](O)C[C@@H]1[C@@]3(C)CC[C@H](O)C(C)(C)[C@@H]3[C@@H](O[C@@H]3O[C@H](CO)[C@@H](O)[C@H](O)[C@H]3O)C[C@]12C [Rg1]
Absorption rates of an orally administered dose: ≥ 0.1%

CC(C)=CCC[C@](C)(O)[C@H]1CC[C@]2(C)[C@@H]1[C@H](O)C[C@@H]1[C@@]3(C)CC[C@H](O)C(C)(C)[C@@H]3[C@@H](O[C@@H]3O[C@H](CO)[C@@H](O)[C@H](O)[C@H]3O[C@@H]3O[C@@H](C)[C@H](O)[C@@H](O)[C@H]3O)C[C@]12C [Rg2]
Absorption rates of an orally administered dose: ≥ 1.9%
